# Experimental data from patent publication US20140275063A1, “NEW ENZYME INHIBITOR COMPOUNDS” (PROXIMAGEN LIMITED, priority 2011, published 2014).
# pIC50: −log10 of the molar value. Counter-ions that a name gives are not always drawn.
# Molecular target: T1, human SSAO (Homo sapiens, UniProt Q16853)
# T1 construct: made in house
# T1 sequence (Q16853 29-763 limits assumed): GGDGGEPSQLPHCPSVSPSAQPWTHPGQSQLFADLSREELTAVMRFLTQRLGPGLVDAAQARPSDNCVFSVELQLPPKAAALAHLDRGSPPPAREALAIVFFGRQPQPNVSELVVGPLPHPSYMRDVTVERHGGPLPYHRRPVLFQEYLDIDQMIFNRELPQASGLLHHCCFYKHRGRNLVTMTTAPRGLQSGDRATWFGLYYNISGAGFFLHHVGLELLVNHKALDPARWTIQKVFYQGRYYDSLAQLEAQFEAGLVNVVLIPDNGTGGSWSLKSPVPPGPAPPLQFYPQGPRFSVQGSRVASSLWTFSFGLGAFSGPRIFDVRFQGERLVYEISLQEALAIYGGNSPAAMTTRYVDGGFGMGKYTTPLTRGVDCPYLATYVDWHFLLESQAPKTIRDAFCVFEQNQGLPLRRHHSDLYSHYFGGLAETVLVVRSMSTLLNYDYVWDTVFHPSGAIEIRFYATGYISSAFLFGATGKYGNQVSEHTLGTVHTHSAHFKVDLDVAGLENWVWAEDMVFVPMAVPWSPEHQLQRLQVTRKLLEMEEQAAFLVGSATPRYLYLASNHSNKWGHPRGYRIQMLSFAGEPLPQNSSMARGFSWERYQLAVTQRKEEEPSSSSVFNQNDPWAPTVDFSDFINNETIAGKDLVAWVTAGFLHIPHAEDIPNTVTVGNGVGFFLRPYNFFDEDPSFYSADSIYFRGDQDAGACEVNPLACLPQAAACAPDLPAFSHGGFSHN
# Experiment: SSAO inhibitory activity (HRP-coupled hydrogen peroxide detection or 14C-benzaldehyde detection, benzylamine substrate)
# Format: biochemical
# Details: purified recombinantly expressed human SSAO, benzylamine as substrate, RT
# Description: All primary assays were performed at RT. with purified recombinantly expressed human SSAO. Enzyme was prepared essentially as described in Öhman et al. (Protein Expression and Purification 46 (2006) 321-331). In addition, secondary- and selectivity assays were performed using SSAO prepared from various tissues or purified rat recombinant SSAO. The enzyme activity was assayed with benzylamine as substrate by measuring either benzaldehyde production, using ^14C-labeled substrate, or by utilizing the production of hydrogen peroxide in a horseradish peroxidase (HRP) coupled reaction. Briefly, test compounds were dissolved in dimethyl sulfoxide (DMSO) to a concentration of 10 mM. Dose-response measurements were assayed by either creating 1:10 serial dilutions in DMSO to produce a 7 point curve or by making 1:3 serial dilutions in DMSO to produce 11 point curves. The top concentrations were adjusted depending on the potency of the compounds and subsequent dilution in reaction buffer yielded a final DMSO concentration ≦2%.
# In a horseradish peroxidase (HRP) coupled reaction, hydrogen peroxide oxidation of 10-acetyl-3,7-dihydroxyphenoxazine produced resorufin, which is a highly fluorescent compound (Zhout and Panchuk-Voloshina. Analytical Biochemistry 253 (1997) 169-174; Amplex® Red Hydrogen Peroxideperoxidase Assay kit, Invitrogen A22188). Enzyme and compounds in 50 mM sodium phosphate, pH 7.4 were set to pre-incubate in flat-bottomed microtiter plates for approximately 15 minutes before initiating the reaction by addition of a mixture of HRP, benzylamine and Amplex reagent. Benzylamine concentration was fixed at a concentration corresponding to the Michaelis constant, determined using standard procedures. Fluorescence intensity was then measured at several time points during 1-2 hours, exciting at 544 nm and reading the emission at 590 nm. For the human SSAO assay final concentrations of the reagents in the assay wells were: SSAO enzyme 1 μg/ml, benzylamine 100 μM, Amplex reagent 20 μM, HRP 0.1 U/mL and varying concentrations of test compound. The inhibition was measured as % decrease of the signal compared to a control without inhibitor (only diluted DMSO). The background signal from a sample containing no SSAO enzyme was subtracted from all data points. Data was fitted to a four parameter logistic model and IC50 values were calculated using the Graph Pad Prism 4 or XLfit 4 programs.
# SSAO activity was assayed using 14C-labeled benzylamine and analysed by measuring radioactive benzaldehyde. In a white 96-well optiplate (Packard), 20 μL of diluted test compound was pre-incubated at RT. with 20 μL SSAO enzyme for approximately 15 minutes with continuous agitation. All dilutions were made with PBS. The reaction was initiated by adding 20 μL of the benzylamine substrate solution containing [7-14C] Benzylamine hydrochloride (CFA589, GE Healthcare). The plate was incubated for 1 hour as above after which the reaction was stopped by acidification (10 μL 1 M HCl). Then 90 μL Micro Scint-E solution (Perkin-Elmer) was added to each well and the plate was continuously mixed for 15 minutes. Phase separation occurred instantly and activity was read in a Topcount scintillation counter (Perkin-Elmer). In the final reaction well, the human recombinant SSAO concentration was 10 μg/ml. In order to optimize sensitivity, the substrate concentration was decreased as compared to the HRP coupled assay in order to get a higher fraction of radioactive product. In the human SSAO assay, benzylamine concentration was 40 μM (0.2 μCi/mL). Data was analysed as above.
row,Structure (SMILES),pIC50
1,"CC(=O)OC1CCN(c2nn(-c3ccc(C)cc3)c3cnccc23)CC1 [Compound 52, 1-[1-(4-Methylphenyl)-1H-pyrazolo[3,4-c]pyridin-3-yl]piperidin-4-yl acetate]",> 7.00
2,"Cc1ccc(-n2nc(N3CCOC(COCCN)C3)c3ccncc32)cc1 (stereo not drawn) [Compound 32, 2-({4-[1-(4-Methylphenyl)-1H-pyrazolo[3,4-c]pyridin-3-yl]morpholin-2-yl}methoxy)ethan-1-amine]",6.30 to 7.00
3,"COCCN1CCC(CNC(=O)N2CCC(c3cn(-c4ccc(Cl)cc4)c4cnccc34)CC2)CC1 [Compound 28, 4-[1-(4-Chlorophenyl)-1H-pyrrolo[2,3-c]pyridin-3-yl]-N-{[1-(2-methoxyethyl)piperidin-4-yl]methyl}piperidine-1-carboxamide; formic acid]",> 7.00
4,"CC(C)N1CCN(C(=O)N2CCC(c3cn(-c4ccc(Cl)cc4)c4cnccc34)CC2)CC1 [Compound 17, 1-({4-[1-(4-Chlorophenyl)-1H-pyrrolo[2,3-c]pyridin-3-yl]piperidin-1-yl}carbonyl)-4-(propan-2-yl)piperazine]",> 7.00
5,"CN1CCN(C(=O)CC2COCCN2c2nn(-c3ccc(Cl)cc3)c3cnccc23)CC1 (stereo not drawn) [Compound 55, 2-{4-[1-(4-Chlorophenyl)-1H-pyrazolo[3,4-c]pyridin-3-yl]morpholin-3-yl}-1-(4-methylpiperazin-1-yl)ethan-1-one]",> 7.00
6,"NCCNC(=O)CC1COCCN1c1nn(-c2ccc(Cl)cc2)c2cnccc12 (stereo not drawn) [Compound 54, N-(2-Aminoethyl)-2-{4-[1-(4-chlorophenyl)-1H-pyrazolo[3,4-c]pyridin-3-yl]morpholin-3-yl}acetamide dihydrochloride]",> 7.00
7,"O=C(O)CC1COCCN1c1nn(-c2ccc(Cl)cc2)c2cnccc12 (stereo not drawn) [Compound 53, 2-{4-[1-(4-Chlorophenyl)-1H-pyrazolo[3,4-c]pyridin-3-yl]morpholin-3-yl}acetic acid hydrochloride]",5.60 to 6.30
8,"Clc1ccc(-n2nc(N3CCOCC3CN3CCOCC3)c3ccncc32)cc1 (stereo not drawn) [Compound 41, 4-[1-(4-Chlorophenyl)-1H-pyrazolo[3,4-c]pyridin-3-yl]-3-(morpholin-4-ylmethyl)morpholine]",6.30 to 7.00
9,"COCCN1CCN(C(=O)N2CCC(c3cn(-c4ccc(Cl)cc4)c4cnccc34)CC2)CC1 [Compound 18, 1-({4-[1-(4-Chlorophenyl)-1H-pyrrolo[2,3-c]pyridin-3-yl]piperidin-1-yl}carbonyl)-4-(2-methoxyethyl) piperazine]",> 7.00
10,"CC(C)[C@H]1CN(C(=O)N2CCC(c3cn(-c4ccc(Cl)cc4)c4cnccc34)CC2)CCN1 [Compound 19, (3S)-1-({4-[1-(4-Chlorophenyl)-1H-pyrrolo[2,3-c]pyridin-3-yl]piperidin-1-yl}carbonyl)-3-(propan-2-yl) piperazine]",> 7.00
11,"Clc1ccc(-n2cc(C3CCN(CC4CCNCC4)CC3)c3ccncc32)cc1 [Compound 3, 4-[1-(4-Chlorophenyl)-1H-pyrrolo[2,3-c]pyridin-3-yl]-1-(piperidin-4-ylmethyl) piperidine]",6.30 to 7.00
12,"O=C(NCC1CCNCC1)N1CCC(c2cn(-c3ccc(Cl)cc3)c3cnccc23)CC1 [Compound 6, 4-[1-(4-Chlorophenyl)-1H-pyrrolo[2,3-c]pyridin-3-yl]-N-(piperidin-4-ylmethyl)piperidine-1-carboxamide]",> 7.00
13,"CN1CCC(CCNC(=O)N2CCC(c3cn(-c4ccc(Cl)cc4)c4cnccc34)CC2)CC1 [Compound 24, 4-[1-(4-Chlorophenyl)-1H-pyrrolo[2,3-c]pyridin-3-yl]-N-[2-(1-methylpiperidin-4-yl)ethyl] piperidine-1-carboxamide]",> 7.00
14,"CN(C)[C@H]1CCN(C(=O)CC2COCCN2c2nn(-c3ccc(Cl)cc3)c3cnccc23)C1 (stereo partly drawn) [Compound 56, 2-{4-[1-(4-Chlorophenyl)-1H-pyrazolo[3,4-c]pyridin-3-yl]morpholin-3-yl}-1-[(3S)-3-(dimethylamino)pyrrolidin-1-yl] ethan-1-one]",> 7.00
15,"Cc1ccc(-n2nc(N3CCOC(CN4CCOCC4)C3)c3ccncc32)cc1 (stereo not drawn) [Compound 34, 4-[1-(4-Methylphenyl)-1H-pyrazolo[3,4-c]pyridin-3-yl]-2-(morpholin-4-ylmethyl)morpholine]",6.30 to 7.00
16,"Clc1ccc(-n2nc(N3CCC(CN4CCNCC4)CC3)c3ccncc32)cc1 [Compound 49, 1-({1-[1-(4-Chlorophenyl)-1H-pyrazolo[3,4-c]pyridin-3-yl]piperidin-4-yl}methyl)piperazine]",6.30 to 7.00
17,"NC(=O)NCC1CN(c2nn(-c3ccc(Cl)cc3)c3cnccc23)CCO1 (stereo not drawn) [Compound 59, ({4-[1-(4-Chlorophenyl)-1H-pyrazolo[3,4-c]pyridin-3-yl]morpholin-2-yl}methyl)urea]",> 7.00
18,"CN1CCN(CCNc2nn(-c3ccc(Cl)cc3)c3cnccc23)CC1 [Compound 46, 1-(4-Chlorophenyl)-N-[2-(4-methylpiperazin-1-yl)ethyl]-1H-pyrazolo[3,4-c]pyridin-3-amine]",6.30 to 7.00
19,"O=C(NCCN1CCOCC1)N1CCC(c2cn(-c3ccc(Cl)cc3)c3cnccc23)CC1 [Compound 22, 4-[1-(4-Chlorophenyl)-1H-pyrrolo[2,3-c]pyridin-3-yl]-N-[2-(morpholin-4-yl)ethyl]piperidine-1-carboxamide]",> 7.00
20,"NCCCOC(=O)N1CCN(CC2CN(c3nn(-c4ccc(Cl)cc4)c4cnccc34)CCO2)CC1 (stereo not drawn) [Compound 37, 3-Aminopropyl 4-({4-[1-(4-chlorophenyl)-1H-pyrazolo[3,4-c]pyridin-3-yl]morpholin-2-yl}methyl)piperazine-1-carboxylate trihydrochloride]",6.30 to 7.00
21,"Clc1ccc(-n2cc(C3CCN(C4CCNC4)CC3)c3ccncc32)cc1 (stereo not drawn) [Compound 1, 4-[1-(4-Chlorophenyl)-1H-pyrrolo[2,3-c]pyridin-3-yl]-1-(pyrrolidin-3-yl)piperidine]",> 7.00
22,"O=C1NCCN1CCNc1nn(-c2ccc(Cl)cc2)c2cnccc12 [Compound 64, 1-(2-{[1-(4-Chlorophenyl)-1H-pyrazolo[3,4-c]pyridin-3-yl]amino}ethyl)imidazolidin-2-one]",> 7.00
23,"CC(C)N1CCC(NC(=O)N2CCC(c3cn(-c4ccc(Cl)cc4)c4cnccc34)CC2)CC1 [Compound 9, 4-[1-(4-Chlorophenyl)-1H-pyrrolo[2,3-c]pyridin-3-yl]-N-[1-(propan-2-yl)piperidin-4-yl] piperidine-1-carboxamide]",> 7.00
24,"NC(=O)CN1CCC(CNC(=O)N2CCC(c3cn(-c4ccc(Cl)cc4)c4cnccc34)CC2)CC1 [Compound 14, N-{[1-(Carbamoyl-methyl)piperidin-4-yl]methyl}-4-[1-(4-chlorophenyl)-1H-pyrrolo[2,3-c]pyridin-3-yl] piperidine-1-carboxamide; formic acid]",> 7.00
